Laboratory results taken from patent publication US20090203785A1, “METHOD AND PROCESS FOR PRODUCING YOUTHFUL-APPEARING, SMALL-PORED, AND SMOOTH SKIN” (priority 2002, published 2009).

System: acne vulgaris
Assay: topical retinoic acid plus laser-induced explosion of carbon particles on the skin of a patient with acne vulgaris (FIG. 4)
Type: in vivo
Settings: combination with exploding carbon particles (Q-switched laser); after first six months of treatment; one patient
Excerpt: In the first step 40, pre-treatment is initiated with topical retinoic acid applied to the skin at least twice per week. The concentration of retinoic acid in the topical formulation is between about 0.05% to 1% preferably about 0.1%. […] In the next step 41, a solution of carbon particles in baby oil is applied to the skin. The carbon particle-oil ratio may range from about 1:1 to 1:9, preferably 1:4, i.e., about 25 percent carbon particles suspended in about 75 percent oil by weight. In the next steps 42 and 43 a laser beam is scanned over the skin treated with the carbon particle solution so as to clean substantially all of the carbon particles from the skin surface by exploding or fracturing the carbon particles. This scanning process takes from about 2 to 10 minutes to complete on the face, usually about 4 minutes, exposing the carbon particles only to 1 or 2 pulses of laser light.
The wave length of the radiation may range from about 800 nM to 1200 nM, preferably about 1064 nM. The frequency of the pulses from the laser range from about 1 to 20 per second, preferably, about 10 per second. The duration of each pulse ranges from about 0.001 to 1 microseconds, preferably about 0.1 microseconds. The fluence or exposure of the skin treated with the carbon particles ranges from about 1 to 3 J/cm^2. […]

Compound: CC1=C(/C=C/C(C)=C/C=C/C(C)=C/C(=O)O)C(C)(C)CCC1 [retinoic acid]
- state of the epidermis / stratum corneum after treatment: leaving the epidermis intact and normal, with no removal of stratum corneum
